# Measured values from patent publication US9474790B2, “Stable, protracted GLP-1/glucagon receptor co-agonists for medical use” (Novo Nordisk A/S, priority 2013, dated 2016).
# Numbered stars: 1 amine (or outer) side, 2 acyl side, 3 side chain; on linkers, the order of the positions; unused ones are H or OH. Bridge positions count the residues as written; N and C are the ends. Square brackets hold non-standard residues; d marks the D form. Side chains are listed from the residue outwards. Peptide text beside a SMILES is read from it. I, II: the chains in the order shown. * marks the point of attachment. C18 diacid = O=C(O)CCCCCCCCCCCCCCCCC(=O)*; γGlu = O=C(O)[C@H](CCC(=O)[*:2])N[*:1]; Ac4c = NC1(C(=O)O)CCC1; AEEA = NCCOCCOCC(=O)O; Aib = CC(C)(N)C(=O)O
# Target: T1, human GLP-1 receptor (Homo sapiens, UniProt P43220)
# T1 construct: expressed in transfected cells; host or cells: BHK cells (parent BHKTS13), clone FCW467-12A/KZ10-1, with CRE luciferase
# T1 sequence (P43220 24-463): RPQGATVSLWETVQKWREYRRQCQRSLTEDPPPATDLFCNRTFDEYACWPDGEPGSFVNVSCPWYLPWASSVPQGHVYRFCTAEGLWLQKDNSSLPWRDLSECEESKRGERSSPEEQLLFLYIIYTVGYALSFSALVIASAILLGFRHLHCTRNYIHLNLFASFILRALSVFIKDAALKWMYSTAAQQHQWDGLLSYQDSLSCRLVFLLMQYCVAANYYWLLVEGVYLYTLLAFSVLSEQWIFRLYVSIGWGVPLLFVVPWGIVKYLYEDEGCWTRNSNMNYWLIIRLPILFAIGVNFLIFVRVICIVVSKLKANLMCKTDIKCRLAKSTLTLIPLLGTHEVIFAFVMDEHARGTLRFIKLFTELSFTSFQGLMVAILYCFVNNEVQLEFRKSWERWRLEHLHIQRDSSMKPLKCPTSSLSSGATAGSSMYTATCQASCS
# Test: GLP-1 receptor binding, 125I-GLP-1 displacement SPA on isolated membranes
# Conditions: displacement of 125I-GLP-1 from membranes; read-out: IC50 GLP-1R
# Method in brief: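 Test derivatives, serially diluted, competed with 125I-GLP-1(7-36)NH2 for the human GLP-1 receptor on BHK membranes, read by WGA-bead scintillation proximity after 2 h at 30°C, pH 7.4 HEPES/EGTA/MgCl2 buffer. Final serum albumin was either ≤0.001% or 2.0%; IC50 from non-linear fit.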
row,SMILES,IC50
1,"CC(C)C[C@H](NC(=O)[C@H](Cc1ccc(O)cc1)NC(=O)[C@H](CCCCN)NC(=O)[C@H](CO)NC(=O)[C@H](CC(C)C)NC(=O)[C@H](CC(=O)O)NC(=O)[C@H](CO)NC(=O)[C@@H](NC(=O)[C@H](Cc1ccccc1)NC(=O)[C@@H](NC(=O)CNC(=O)[C@H](CCC(N)=O)NC(=O)C1(NC(=O)[C@@H](N)Cc2c[nH]cn2)CCC1)[C@@H](C)O)[C@@H](C)O)C(=O)N[C@@H](CCC(=O)O)C(=O)N[C@@H](CCC(=O)O)C(=O)N[C@@H](CCCNC(=N)N)C(=O)N[C@@H](CCCNC(=N)N)C(=O)N[C@@H](C)C(=O)N[C@@H](CCCNC(=N)N)C(=O)N[C@@H](CC(=O)O)C(=O)N[C@@H](Cc1ccccc1)C(=O)N[C@H](C(=O)N[C@@H](CCC(N)=O)C(=O)N[C@@H](Cc1c[nH]c2ccccc12)C(=O)N[C@@H](CC(C)C)C(=O)N[C@@H](CC(C)C)C(=O)N[C@@H](CCCCNC(=O)CNC(=O)[C@H](CO)NC(=O)[C@H](CCC(=O)O)NC(=O)CNC(=O)[C@H](CO)NC(=O)CC[C@H](NC(=O)CC[C@H](NC(=O)CCCCCCCCCCCCCCCCC(=O)O)C(=O)O)C(=O)O)C(=O)N[C@H](C(N)=O)[C@@H](C)O)C(C)C [Example 16, N^ε28-[2-[[(2S)-2-[[(2S)-4-carboxy-2-[[2-[[(2S)-2-[[(4S)-4-carboxy-4-[[(4S)-4-carboxy-4-(17-carboxyheptadecanoylamino)butanoyl]amino]butanoyl]amino]-3-hydroxypropanoyl]amino]acetyl]amino]butanoyl]amino]-3-hydroxypropanoyl]amino]acetyl]-[Acb2,Leu10,Glu15,Glu16,Arg20,Leu27,Lys28]-Glucagon amide] (I: H-H[Ac4c]QGTFTSDLSKYLEERRARDFVQWLLKT-NH2 / II: {C18 diacid-γGlu-γGlu}-SGESG; amide I:28-II:C; N-terminus assumed)",0.2 nM
2,"CC(C)C[C@H](NC(=O)[C@H](Cc1ccc(O)cc1)NC(=O)[C@H](CCCCN)NC(=O)[C@H](CO)NC(=O)[C@H](CC(C)C)NC(=O)[C@H](CC(=O)O)NC(=O)[C@H](CO)NC(=O)[C@@H](NC(=O)[C@H](Cc1ccccc1)NC(=O)[C@@H](NC(=O)CNC(=O)[C@H](CCC(N)=O)NC(=O)C1(NC(=O)[C@@H](N)Cc2c[nH]cn2)CCC1)[C@@H](C)O)[C@@H](C)O)C(=O)N[C@@H](CCC(=O)O)C(=O)N[C@@H](CO)C(=O)N[C@@H](CCCNC(=N)N)C(=O)N[C@@H](CCCNC(=N)N)C(=O)N[C@@H](C)C(=O)N[C@@H](CCCNC(=N)N)C(=O)N[C@@H](CCC(=O)O)C(=O)N[C@@H](Cc1ccccc1)C(=O)N[C@H](C(=O)N[C@@H](CCC(N)=O)C(=O)N[C@@H](Cc1c[nH]c2ccccc12)C(=O)N[C@@H](CC(C)C)C(=O)N[C@@H](CC(C)C)C(=O)N[C@@H](CCCCNC(=O)CC[C@H](NC(=O)CC[C@H](NC(=O)COCCOCCNC(=O)COCCOCCNC(=O)CC[C@H](NC(=O)CCCCCCCCCCCCCCCCC(=O)O)C(=O)O)C(=O)O)C(=O)O)C(=O)N[C@H](C(N)=O)[C@@H](C)O)C(C)C [Example 44, N^ε28-[(4S)-4-carboxy-4-[[(4S)-4-carboxy-4-[[2-[2-[2-[[2-[2-[2-[[(4S)-4-carboxy-4-(17-carboxyheptadecanoylamino)butanoyl]amino]ethoxy]ethoxy]acetyl]amino]ethoxy]ethoxy]acetyl]amino]butanoyl]amino]butanoyl]-[Acb2,Leu10,Glu15,Arg20,Glu21,Leu27,Lys28]-Glucagon amide] (H-H[Ac4c]QGTFTSDLSKYLESRRAREFVQWLLK([γGlu-γGlu-AEEA-AEEA-γGlu-C18 diacid])T-NH2; N-terminus assumed)",0.3 nM
3,"CC(C)C[C@H](NC(=O)[C@H](Cc1ccc(O)cc1)NC(=O)[C@H](CCCCN)NC(=O)[C@H](CO)NC(=O)[C@H](CC(C)C)NC(=O)[C@H](CC(=O)O)NC(=O)[C@H](CO)NC(=O)[C@@H](NC(=O)[C@H](Cc1ccccc1)NC(=O)[C@@H](NC(=O)CNC(=O)[C@H](CCC(N)=O)NC(=O)C(C)(C)NC(=O)[C@@H](N)Cc1c[nH]cn1)[C@@H](C)O)[C@@H](C)O)C(=O)N[C@@H](CC(=O)O)C(=O)N[C@@H](CO)C(=O)N[C@@H](CCCNC(=N)N)C(=O)N[C@@H](CCCNC(=N)N)C(=O)N[C@@H](C)C(=O)N[C@@H](CCCNC(=N)N)C(=O)N[C@@H](CCC(=O)O)C(=O)N[C@@H](Cc1ccccc1)C(=O)N[C@H](C(=O)N[C@@H](CCC(N)=O)C(=O)N[C@@H](Cc1c[nH]c2ccccc12)C(=O)N[C@@H](CC(C)C)C(=O)N[C@@H](CC(C)C)C(=O)N[C@@H](CCCCNC(=O)CC[C@H](NC(=O)CC[C@H](NC(=O)COCCOCCNC(=O)COCCOCCNC(=O)CC[C@H](NC(=O)CCCCCCCCCCCCCCCCC(=O)O)C(=O)O)C(=O)O)C(=O)O)C(=O)N[C@H](C(N)=O)[C@@H](C)O)C(C)C [Example 56, N^ε28-[(4S)-4-carboxy-4-[[(4S)-4-carboxy-4-[[2-[2-[2-[[2-[2-[2-[[(4S)-4-carboxy-4-(17-carboxyheptadecanoylamino)butanoyl]amino]ethoxy]ethoxy]acetyl]amino]ethoxy]ethoxy]acetyl]amino]butanoyl]amino]butanoyl]-[Aib2,Leu10,Arg20,Glu21,Leu27,Lys28]-Glucagon amide] (H-H[Aib]QGTFTSDLSKYLDSRRAREFVQWLLK([γGlu-γGlu-AEEA-AEEA-γGlu-C18 diacid])T-NH2)",0.3 nM
4,"CC(C)C[C@H](NC(=O)[C@H](Cc1c[nH]c2ccccc12)NC(=O)[C@H](C)NC(=O)[C@@H](NC(=O)[C@H](Cc1ccccc1)NC(=O)[C@H](CCC(=O)O)NC(=O)[C@H](CCCNC(=N)N)NC(=O)[C@H](C)NC(=O)[C@H](CCCNC(=N)N)NC(=O)[C@H](CCCNC(=N)N)NC(=O)[C@H](CCCCNC(=O)CC[C@H](NC(=O)COCCOCCNC(=O)COCCOCCNC(=O)CC[C@H](NC(=O)CC[C@H](NC(=O)CCCCCCCCCCCCCCCCC(=O)O)C(=O)O)C(=O)O)C(=O)O)NC(=O)[C@H](CC(=O)O)NC(=O)[C@H](CC(C)C)NC(=O)[C@H](Cc1ccc(O)cc1)NC(=O)[C@H](CCCCN)NC(=O)[C@H](CO)NC(=O)[C@H](CC(C)C)NC(=O)[C@H](CC(=O)O)NC(=O)[C@H](CO)NC(=O)[C@@H](NC(=O)[C@H](Cc1ccccc1)NC(=O)[C@@H](NC(=O)CNC(=O)[C@H](CCC(N)=O)NC(=O)C(C)(C)NC(=O)[C@@H](N)Cc1c[nH]cn1)[C@@H](C)O)[C@@H](C)O)C(C)C)C(=O)N[C@@H](CC(C)C)C(=O)N[C@@H](CC(N)=O)C(=O)N[C@H](C(N)=O)[C@@H](C)O [Example 19, N^ε29-[(4S)-4-carboxy-4-[[2-[2-[2-[[2-[2-[2-[[(4S)-4-carboxy-4-[[(4S)-4-carboxy-4-(17-carboxyheptadecanoylamino)butanoyl]amino]butanoyl]amino]ethoxy]ethoxy]acetyl]amino]ethoxy]ethoxy]acetyl]amino]butanoyl]-[Aib2,Leu10,Lys16,Arg20,Glu21,Ala24,Leu27]-Glucagon amide] (H-H[Aib]QGTFTSDLSKYLDK([γGlu-AEEA-AEEA-γGlu-γGlu-C18 diacid])RRAREFVAWLLNT-NH2; N-terminus assumed)",0.9 nM
5,"CC(C)C[C@H](NC(=O)[C@H](CC(=O)O)NC(=O)[C@H](CC(C)C)NC(=O)[C@H](Cc1ccc(O)cc1)NC(=O)[C@H](CCCCN)NC(=O)[C@H](CO)NC(=O)[C@H](CC(C)C)NC(=O)[C@H](CC(=O)O)NC(=O)[C@H](CO)NC(=O)[C@@H](NC(=O)[C@H](Cc1ccccc1)NC(=O)[C@@H](NC(=O)CNC(=O)[C@H](CCC(N)=O)NC(=O)C(C)(C)NC(=O)[C@@H](N)Cc1c[nH]cn1)[C@@H](C)O)[C@@H](C)O)C(=O)N[C@@H](CCCCN)C(=O)N[C@@H](CCCNC(=N)N)C(=O)N[C@@H](C)C(=O)N[C@@H](CCCNC(=N)N)C(=O)N[C@@H](CCC(=O)O)C(=O)N[C@@H](Cc1ccccc1)C(=O)N[C@H](C(=O)N[C@@H](CCC(N)=O)C(=O)N[C@@H](Cc1c[nH]c2ccccc12)C(=O)N[C@@H](CC(C)C)C(=O)N[C@@H](CC(C)C)C(=O)N[C@@H](CCCCNC(=O)CC[C@H](NC(=O)CC[C@H](NC(=O)COCCOCCNC(=O)COCCOCCNC(=O)CC[C@H](NC(=O)CCCCCCCCCCCCCCCCC(=O)O)C(=O)O)C(=O)O)C(=O)O)C(=O)N[C@H](C(N)=O)[C@@H](C)O)C(C)C [Example 26, N^ε28-[(4S)-4-carboxy-4-[[(4S)-4-carboxy-4-[[2-[2-[2-[[2-[2-[2-[[(4S)-4-carboxy-4-(17-carboxyheptadecanoylamino)butanoyl]amino]ethoxy]ethoxy]-acetyl]amino]ethoxy]ethoxy]acetyl]amino]butanoyl]amino]butanoyl]-[Aib2,Leu10,Leu16,Lys17,Arg20,Glu21, Leu27,Lys28]-Glucagon amide] (H-H[Aib]QGTFTSDLSKYLDLKRAREFVQWLLK([γGlu-γGlu-AEEA-AEEA-γGlu-C18 diacid])T-NH2)",0.5 nM
6,CC(C)C[C@H](NC(=O)[C@H](Cc1ccc(O)cc1)NC(=O)[C@H](CCCCN)NC(=O)[C@H](CO)NC(=O)[C@H](CC(C)C)NC(=O)[C@H](CC(=O)O)NC(=O)[C@H](CO)NC(=O)[C@@H](NC(=O)[C@H](Cc1ccccc1)NC(=O)[C@@H](NC(=O)CNC(=O)[C@H](CCC(N)=O)NC(=O)C(C)(C)NC(=O)[C@@H](N)Cc1c[nH]cn1)[C@@H](C)O)[C@@H](C)O)C(=O)N[C@@H](CC(=O)O)C(=O)N[C@@H](C)C(=O)N[C@@H](CCCNC(=N)N)C(=O)N[C@@H](CCCNC(=N)N)C(=O)N[C@@H](C)C(=O)N[C@@H](CCCNC(=N)N)C(=O)N[C@@H](CC(=O)O)C(=O)N[C@@H](Cc1ccccc1)C(=O)N[C@H](C(=O)N[C@@H](CCC(N)=O)C(=O)N[C@@H](Cc1c[nH]c2ccccc12)C(=O)N[C@@H](CC(C)C)C(=O)N[C@@H](CC(C)C)C(=O)N[C@@H](CC(N)=O)C(=O)N[C@@H](CCCCNC(=O)CC[C@H](NC(=O)CC[C@H](NC(=O)COCCOCCNC(=O)COCCOCCNC(=O)CC[C@H](NC(=O)CCCCCCCCCCCCCCCCC(=O)O)C(=O)O)C(=O)O)C(=O)O)C(N)=O)C(C)C [Example 65] (H-H[Aib]QGTFTSDLSKYLDARRARDFVQWLLNK([γGlu-γGlu-AEEA-AEEA-γGlu-C18 diacid])-NH2; N-terminus assumed),0.5 nM
